# Test results as given in patent US5410068A, “Succinimidyl trityl compounds and a process for preparing same” (PerSeptive Biosystems, Inc., priority 1989, dated 1995).
# {Biotin} = biotin attached to 5'-amino group
# Test system: streptavidin agarose
# Assay: binding of biotin labeled oligonucleotides and amplified DNA to streptavidin agarose support
# Settings: purified oligonucleotide
# Experimental: The major component of each sample was isolated by the method described in Example 12.
# Aliquots of the reaction mixture taken at 5 minutes, 55 minutes and 120 minutes were analyzed by reversed-phase HPLC. The analysis indicated complete disappearance of the major component of the crude mixture in favor of a more hydrophobic product within two hours.
# Streptavidin agarose (Gibco BRL, Bethesda Md.) was treated before use. The agarose was washed three times with 200 μl of 150 mM NaCl, 10 mM NaH2 PO4 pH 7.2 containing 0.05% NaN3 and 10% acetonitrile. A 25 μl aliquot of 0.5M NaCl in 80% aqueous acetic acid containing 0.5% (w/v) aminoethanethiol hydrochloride was then washed through the resin and then 100 μl of this solution was allowed to react with the streptavidin agarose for 1 hr. The resin was again washed three times with 100 μl of 150 mM NaCl, 10 mM NaH2 PO4 pH 7.2 containing .05% NaN3 and 10% acetonitrile.
# Following amplication, a portion of each PCR reaction (50 μl) was incubated with pretreated (see Example 16) streptavidin agarose (100 μl) for 30 minutes. At the end of the incubation, the supernatant was removed and the streptavidin agarose was washed twice with 100 μl of 150 mM NaCl, 10 mM NaH2 PO4 pH 7.2 containing 0.05% NaN3 and 10% acetonitrile (hereafter called streptavidin buffer).The washings were combined with the supernatant. […]
substance,measurement,value
"new product: biotinylated 5'-amino group containing partially protected 15-mer 5'-TCCCAGTCACGACGT-3' (treated with 1,6-diaminohexane) (DNA, 5' {Biotin}, backbone and methylation of C not given here; biotin via aminohexyl, partially protected)",binding to streptavidin agarose,shown to bind to streptavidin agarose
